Consider four compounds from publication PMC8434204, “Discrimination of Methionine Sulfoxide and Sulfone by Human Neutrophil Elastase” (Molecules, 2021).

Like-named read-outs stand apart in the source and are kept apart here. Square brackets hold non-standard residues; d marks the D form. Peptide text beside a SMILES is read from it. * marks the point of attachment. Met(O2) = CS(=O)(=O)CC[C@H](N)C(=O)O; Met(O) = CS(=O)CC[C@H](N)C(=O)O; pNA = O=[N+]([O-])c1ccc(N*)cc1; MeOSuc = COC(=O)CCC(=O)*

For test [1], the target named is T1, Human neutrophil elastase (HNE) (Homo sapiens, UniProt P08246).
T1 construct: HNE purified from purulent human sputum (Elastin Products Company, Owensville, MO, USA); purchased Elastin Products Company, Owensville, MO, USA; host or cells: purulent human sputum (natural source)
T1 sequence (P08246 30-247 limits assumed): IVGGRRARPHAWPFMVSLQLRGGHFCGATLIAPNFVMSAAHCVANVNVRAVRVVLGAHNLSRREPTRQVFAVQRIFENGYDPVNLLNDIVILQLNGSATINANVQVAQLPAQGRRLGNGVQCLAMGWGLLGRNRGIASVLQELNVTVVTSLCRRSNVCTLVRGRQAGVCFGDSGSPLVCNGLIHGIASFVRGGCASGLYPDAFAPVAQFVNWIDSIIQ
Description: Kinetic assays of synthesized pNA substrates (Michaelis-Menten). The format is biochemical. The method, then:
Figure 2 Substrate concentration versus velocity plot of candidate pNA substrates containing a P1 valine residue (A), or a P1 alanine residue (B), assayed against 3 nM active HNE. […] Data points represent the average rate observed from three replicate experiments of triplicate measurements. […] Error bars show SEM. Where not visible, error bars are smaller than the pictured data point.
(§1) For substrate library kinetic assay screen, reactions were initiated by addition of HNE purified from purulent human sputum (Elastin Products Company, Owensville, MO, USA) to triplicate microplate wells containing each substrate, and the rate of reaction determined spectrophotometrically at 405 nm. Final concentrations were 300 µM substrates and 1 µg/mL HNE in 250 µL assay buffer (100 mM Tris pH 8, 50 mM NaCl, 10% DMF, 0.05% Triton X-100). For in-depth assays of candidate substrates and inhibitors, the active site concentration of HNE was first determined by titration with A1AT. Briefly, 250 nM A1AT was serially diluted in a 96-well microplate to provide a final assay volume of 250 µL. A total of 2.5 µL of HNE stock solution (100 µg/mL) was added to each well and complex formation was allowed to proceed over a period of 20 min at RT. Assays were initiated by addition of Ac-RM(O2)PA-pNA substrate, monitoring the evolution of free para-nitroanilide at 405 nm for 90 s again at RT. Kinetic assays of synthesized pNA substrates were carried out similarly omitting the A1AT and serially diluting the substrates, KM and Vmax values were determined by GraphPad Prism 5.01 (La Jolla, CA, USA) Michaelis–Menten non-linear regression. Assays with peptide aldehyde inhibitors were carried out as with the active site titration. Inhibition constants were calculated in GraphPad Prism by non-linear regression using the Morrison equation for tight-binding inhibitors.

The target of test [2] is T1, Human neutrophil elastase (HNE). As to conditions: literature value; read-out: KM, previously published value; cited from earlier work. From the text: The standard substrate MeOSuc-AAPV-pNA was also synthesised to provide a benchmark against other studies. […] Acetylated forms of the P4 arginine substrates were synthesised to assess the effect of a charged N-termin ...

The target is the same in test [3]. Description: Inhibition of HNE proteolysis by peptide aldehyde inhibitors. The format is biochemical. The conditions noted are these: for Ki: 10 nM active HNE, 100 nM Ac-RM(O2)AA-pNA substrate (Figure 3), 20 min complex formation at RT, 405 nm, Morrison equation for tight-binding inhibitors, three replicate experiments of triplicate measurements; for Relative Potency (fold inhibition enhancement relative to Ac-RMAV-H): ratio of Ki values relative to non-oxidised Ac-RMAV-H. How it is done: Figure 3 Dose-response plot of Ac-RMAV-H peptide aldehyde inhibitor variants containing differing oxidation states of the P3 methionine residue. All assays contained 10 nM active HNE and 100 nM Ac-RM(O2)AA-pNA substrate. Data are reported as percent activity remaining compared to uninhibited controls, and data points represent the mean observed from three replicate experiments of triplicate measurements. Error bars show SEM. Where not visible, error bars are smaller than the pictured data point.
as §1

Consider “MeOSuc-AAPV-pNA (SMILES COC(=O)CCC(=O)N[C@@H](C)C(=O)N[C@@H](C)C(=O)N1CCC[C@H]1C(=O)N[C@H](C(=O)Nc1ccc([N+](=O)[O-])cc1)C(C)C) [standard HNE substrate synthesised as benchmark against other studies]”, for which the kcat (commonly the number of substrate molecules converted per active site and unit of time at saturation) in test [1] (3 nM active HNE (purified from purulent human sputum), 100 mM Tris pH 8, 50 mM NaCl, 10% DMF, 0.05% Triton X-100, RT, 405 nm, Michaelis-Menten non-linear regression, three replicate experiments of triplicate measurements) came to 2.90 s⁻¹. The Km (commonly the concentration of substrate that gives half-maximal velocity) in test [1] (3 nM active HNE, 100 mM Tris pH 8, 50 mM NaCl, 10% DMF, 0.05% Triton X-100, RT, 405 nm, Michaelis-Menten non-linear regression, ± SEM) is 153 ± 17.6 µM; in test [2], 140 µM. For the same compound, the kcat/KM (in general, the turnover number divided by the Michaelis constant) in test [1] (catalytic efficiency calculated from kcat and KM, 3 nM active HNE) is 18900 M⁻¹ s⁻¹.
In the case of `CC(=O)N[C@@H](CCCNC(=N)N)C(=O)N[C@@H](CCS(C)(=O)=O)C(=O)N[C@@H](C)C(=O)N[C@H](C=O)C(C)C` [Ac-RM(O2)AV-H] (Ac-R[Met(O2)]AV-aldehyde), in test [3], the Ki (commonly a measure of affinity in units of concentration, obtained from inhibition or displacement) was 0.147 µM and the “Relative Potency (fold inhibition enhancement relative to Ac-RMAV-H)” value is recorded as 49.4.
Consider `CSCC[C@H](NC(=O)[C@H](CCCNC(=N)N)NC(C)=O)C(=O)N[C@@H](C)C(=O)N[C@H](C=O)C(C)C` [Ac-RMAV-H] (Ac-RMAV-aldehyde), for which, in test [3], the affinity, expressed as Ki, was 7.27 µM and the “Relative Potency (fold inhibition enhancement relative to Ac-RMAV-H)” value is recorded as 1.
On to `CC(=O)N[C@@H](CCCNC(=N)N)C(=O)N[C@@H](CC[S+](C)[O-])C(=O)N[C@@H](C)C(=O)N[C@H](C=O)C(C)C` (stereo partly shown) [Ac-RM(O)AV-H] (Ac-R[Met(O)]AV-aldehyde), for which, in test [3], the Ki stood at 5.55 µM and the “Relative Potency (fold inhibition enhancement relative to Ac-RMAV-H)” value turned out to be 1.3.
